Measured values: PubChem BioAssay (NCI)
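Tested at 5 concentrations; 48 h exposure; 96-well plates; endpoints linearly interpolated, else capped at highest concentration. GI50: concentration for 50% inhibition of growth. TGI denotes the concentration required for complete inhibition of growth.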

Legend:
Test in all cases: NCI anticancer screen, dose series, 48 h
[1] = test system: SK-MEL-5 melanoma
[2] = test system: U251 CNS
[3] = test system: SK-OV-3 ovarian
[4] = test system: SF-539 CNS
[5] = test system: OVCAR-3 ovarian
[6] = test system: OVCAR-4 ovarian
[7] = test system: COLO 205 colon
[8] = test system: EKVX NSCLC
[9] = test system: NCI/ADR-RES ovarian
[10] = test system: OVCAR-8 ovarian
[11] = test system: HOP-62 NSCLC
[12] = test system: LOX IMVI melanoma
[13] = test system: 786-0 renal
[14] = test system: SF-295 CNS
[15] = test system: T-47D breast
[16] = test system: PC-3 prostate
[17] = test system: DU-145 prostate
[18] = test system: NCI-H226 lung
[19] = test system: UACC-62 melanoma
[20] = test system: BT-549 breast
[21] = test system: SNB-75 CNS
[22] = test system: SK-MEL-28 melanoma
[23] = test system: KM12 colon
[24] = test system: NCI-H23 lung
[25] = test system: HT29 colon
[26] = test system: MCF7 breast
[27] = test system: ACHN renal
[28] = test system: OVCAR-5 ovarian
[29] = test system: MDA-MB-231 breast
[30] = test system: NCI-H522 lung
[31] = test system: SNB-19 CNS
[32] = test system: RPMI-8226 leukemia
[33] = test system: SF-268 CNS
[34] = test system: MALME-3M melanoma
[35] = test system: NCI-H460 lung
[36] = test system: HCT-15 colon
[37] = test system: RXF 393 renal
[38] = test system: IGROV1 ovarian
[39] = test system: CCRF-CEM leukemia
[40] = test system: SW-620 colon
[41] = test system: MDA-MB-435
[42] = test system: A498 renal
[43] = test system: HCC-2998 colon
[44] = test system: M14 melanoma
[45] = test system: A549 NSCLC
[46] = test system: HS 578T breast
[47] = test system: HL-60(TB) leukemia
[48] = test system: SR leukemia
[49] = test system: UACC-257 melanoma
[50] = test system: TK-10 renal
[51] = test system: HCT-116 colon
[52] = test system: SK-MEL-2 melanoma
[53] = test system: K-562 leukemia
[54] = test system: UO-31 renal
[55] = test system: SN12C renal
[56] = test system: HOP-92 NSCLC
[57] = test system: MDA-MB-468 breast
[58] = test system: CAKI-1 renal

N#Cc1c(NC(=O)c2ccc(C(O)(C(F)(F)F)C(F)(F)F)cc2)sc2c1CCC(=O)C2
GI50 [1]: 1.58 µM | TGI [1]: 2.93 µM | GI50 [2]: 0.933 µM | TGI [2]: 2.71 µM | GI50 [3]: 2.88 µM | TGI [3]: 8.16 µM | GI50 [4]: 0.539 µM | TGI [4]: 1.71 µM | GI50 [5]: 1.23 µM | TGI [5]: 2.53 µM | GI50 [6]: 1.45 µM | TGI [6]: 3.39 µM | GI50 [7]: 0.995 µM | TGI [7]: 2.66 µM | GI50 [8]: 2.65 µM | TGI [8]: 8.4 µM | GI50 [9]: 2.27 µM | TGI [9]: 6.78 µM | GI50 [10]: 2.27 µM | TGI [10]: 9.4 µM | GI50 [11]: 3.53 µM | TGI [11]: 13.1 µM | GI50 [12]: 0.455 µM | TGI [12]: 1.68 µM | GI50 [13]: 1.13 µM | TGI [13]: 2.89 µM | GI50 [14]: 2.13 µM | TGI [14]: 5.24 µM | GI50 [15]: 0.496 µM | TGI [15]: 2.33 µM | GI50 [16]: 0.325 µM | TGI [16]: 1.94 µM | GI50 [17]: 3.38 µM | TGI [17]: 11.7 µM | GI50 [18]: 2.01 µM | TGI [18]: 5.67 µM | GI50 [19]: 1.39 µM | TGI [19]: 2.81 µM | GI50 [20]: 0.422 µM | TGI [20]: 1.78 µM | GI50 [21]: 1.31 µM | TGI [21]: 4.39 µM | GI50 [22]: 1.29 µM | TGI [22]: 2.76 µM | GI50 [23]: 1.46 µM | TGI [23]: 3.32 µM | GI50 [24]: 1.14 µM | TGI [24]: 2.78 µM | GI50 [25]: 0.478 µM | TGI [25]: 6.44 µM | GI50 [26]: 0.616 µM | TGI [26]: 2.53 µM | GI50 [27]: 0.346 µM | TGI [27]: 1.35 µM | GI50 [28]: 1.67 µM | TGI [28]: 3.38 µM | GI50 [29]: 1.47 µM | TGI [29]: 2.93 µM | GI50 [30]: 0.363 µM | TGI [30]: 1.59 µM | GI50 [31]: 3.44 µM | TGI [31]: 11.9 µM | GI50 [32]: 0.434 µM | TGI [32]: > 100 µM | GI50 [33]: 2.37 µM | TGI [33]: 7.27 µM | GI50 [34]: 0.641 µM | TGI [34]: 1.94 µM | GI50 [35]: 2.73 µM | TGI [35]: 8.49 µM | GI50 [36]: 1.1 µM | TGI [36]: 2.92 µM | GI50 [37]: 0.549 µM | TGI [37]: 2.08 µM | GI50 [38]: 1.81 µM | TGI [38]: 3.86 µM | GI50 [39]: 0.338 µM | TGI [39]: 7.29 µM | GI50 [40]: 0.354 µM | TGI [40]: 1.54 µM | GI50 [41]: 1.93 µM | TGI [41]: 4.18 µM | GI50 [42]: 12.2 µM | TGI [42]: 26.5 µM | GI50 [43]: 1.71 µM | TGI [43]: 3.15 µM | GI50 [44]: 0.739 µM | TGI [44]: 2.77 µM | GI50 [45]: 2.75 µM | TGI [45]: 12.6 µM | GI50 [46]: 1.77 µM | TGI [46]: 5.55 µM | GI50 [47]: 0.415 µM | TGI [47]: > 100 µM | GI50 [48]: 0.546 µM | TGI [48]: > 34.7 µM | GI50 [49]: 1.83 µM | TGI [49]: 4.1 µM | GI50 [50]: 2.38 µM | TGI [50]: 8.7 µM | GI50 [51]: 0.466 µM | TGI [51]: 5.29 µM | GI50 [52]: 2.14 µM | TGI [52]: 4.36 µM | GI50 [53]: 0.297 µM | TGI [53]: > 100 µM | GI50 [54]: 0.682 µM | TGI [54]: 2 µM | GI50 [55]: 1.29 µM | TGI [55]: 3.33 µM | GI50 [56]: 0.475 µM | TGI [56]: 1.46 µM | GI50 [57]: 0.6 µM | TGI [57]: 1.67 µM | GI50 [58]: 0.465 µM | TGI [58]: 1.8 µM
